{
  "source": "patent US20140050720A1",
  "about": "“ULTRALONG COMPLEMENTARITY DETERMINING REGIONS AND USES THEREOF” (THE SCRIPPS RESEARCH INSTITUTE, priority 2012, published 2014)",
  "key": {"Human mPB CD34+ cells": {"system": "Human mPB CD34+ cells", "assay": "Proliferative activity on human granulocyte progenitors (flow cytometry)", "assay_type": "cell-based", "settings": "7 days", "protocol": "Human mPB CD34^+ cells were purchased from AllCells. Cells were resuspended in HSC expansion medium (StemSpan SFEM, StemCell Technologies) supplemented with 1× antibiotics and the following recombinant human cytokines thrombopoietin, IL6, Flt3 ligand, and stem cell factor (100 ng/mL, R & D Systems), then plated in 96-well plates (1000 cells per well), with varied concentrations of BLV1H12-bGCSF fusion antibodies. Cells were cultured for 7 days at 37° C. in a 5% CO2 incubator, then analyzed by flow cytometry to measure cell number and expression of CD45ra and CD41. Cells were stained in staining medium (HBSS supplemented with 2% FBS and 2 mM EDTA) at 4° C. for 1 h with PECy7 anti-CD45ra and eFluor 450 anti-CD41 (eBiosciences), then washed with staining medium and analyzed. Multicolor analysis for cell phenotyping was performed on a LSR II flow cytometer (Becton Dickinson). FIGS. 10A-10E and Tables 9-10 show the human granulocyte progenitor cell proliferative activities of the Ab-GCSF fusion antibodies."}, "[1]": {"assay": "Pharmacokinetics of BLV1H12-bGCSF fusion antibodies in mice", "assay_type": "in vivo", "settings": "BALB/c mice, 70 μg injected", "protocol": "For PK study in mice, 70 μg of the immunoglobulin constructs described herein were injected into 3 BALB/c mice per group. Blood samples were drawn from time 0 to 14 days with extended intervals and analyzed by ELISA using anti-human IgG Fc antibody with horseradish peroxidase (HRP) labeled (KPL) and anti-6×His antibody with HRP labeled (Clontech). Data were normalized by taking maximal concentration at the first time point (30 min)."}, "Mouse NFS-60 cells": {"system": "Mouse NFS-60 cells", "assay": "Proliferation assay on mouse NFS-60 cells (AlamarBlue)", "assay_type": "cell-based", "settings": "72 hours", "protocol": "Mouse NFS-60 cells were obtained from American Type Culture Collection (ATCC), VA, and cultured in RPMI-1640 medium supplemented with 10% fetal bovine serum (FBS), 0.05 mM 2-mercapoethanol and 62 ng/ml human macrophage colony stimulating factor (M-CSF). For proliferation assay, mouse NFS-60 cells were washed three times with RPMI-1640 medium and resuspended in RPMI-1640 medium with 10% FBS and 0.05 mM 2-mercapoethanol at a density of 1.5×10^5 cells/ml. In 96-well plates, 100 μl of cell suspension was added into each well, followed by the addition of varied concentrations of bGCSF, BLV1H12 antibody, and the immunoglobulin constructs described herein, Equal volume of PBS buffer was added into the control wells. The plates were incubated at 37° C. in a 5% CO2 incubator for 72 hours. Cells were then treated with AlamarBlue (Invitrogen) ( 1/10 volume of cell suspension) for 4 hours at 37° C. Fluorescence at 595 nm for each well was read to indicate the cell viability."}, "mice neutrophils": {"system": "mice neutrophils", "assay": "Neutrophils counts in mice", "assay_type": "in vivo", "settings": "mice blood, 10th day post-injection, neutrophils among white blood cells", "protocol": "On the 10th day after injection of BLV1H12-bGCSF fusion antibodies into mice for PK study, blood samples were drawn from the mice and stained using the Diff Quick Staining Kit (Thermo Fisher Scientific, IL). Neutrophils and white blood cells were counted under microscope and the percentages of neutrophils were analyzed. FIGS. 12A-12B and Table 12 show proliferative activities of BLV1H12-bGCSF fusion antibodies on mice neutrophils that are blood stained and counted at the 10th day post-injection."}},
  "data": [
    {"substance": "Ab-bGCSF L0: bovine G-CSF replacing the knob domain of BLV1H12 CDR3H, no linker (n=0); DNA SEQ ID NO: 4", "values": [
      {"measurement": "Number of CD45RA− CD41−", "setting": "Human mPB CD34+ cells; 0.14225 ng/mL", "result": 2601},
      {"measurement": "Number of CD45RA− CD41−", "setting": "Human mPB CD34+ cells; 0.42676 ng/mL", "result": 2253},
      {"measurement": "Number of CD45RA− CD41−", "setting": "Human mPB CD34+ cells; 3.84088 ng/mL", "result": 4399},
      {"measurement": "Number of CD45RA− CD41−", "setting": "Human mPB CD34+ cells; 11.52263 ng/mL", "result": 7262},
      {"measurement": "Number of CD45RA− CD41−", "setting": "Human mPB CD34+ cells; 34.5679 ng/mL", "result": 9902},
      {"measurement": "Number of CD45RA− CD41−", "setting": "Human mPB CD34+ cells; 103.7037 ng/mL", "result": 11500},
      {"measurement": "Number of CD45RA− CD41−", "setting": "Human mPB CD34+ cells; 311.11111 ng/mL", "result": 11500},
      {"measurement": "Number of CD45RA− CD41−", "setting": "Human mPB CD34+ cells; 933.33333 ng/mL", "result": 11900},
      {"measurement": "Number of CD45RA− CD41−", "setting": "Human mPB CD34+ cells; 2800 ng/mL", "result": 12100},
      {"measurement": "Percentage (normalized to maximal concentration at the first time point, 30 min)", "setting": "[1]; day 0.021", "result": 100.00, "unit": "%"},
      {"measurement": "Percentage (normalized to maximal concentration at the first time point, 30 min)", "setting": "[1]; day 0.042", "result": 91.12, "unit": "%"},
      {"measurement": "Percentage (normalized to maximal concentration at the first time point, 30 min)", "setting": "[1]; day 0.083", "result": 91.24, "unit": "%"},
      {"measurement": "Percentage (normalized to maximal concentration at the first time point, 30 min)", "setting": "[1]; day 0.125", "result": 91.56, "unit": "%"},
      {"measurement": "Percentage (normalized to maximal concentration at the first time point, 30 min)", "setting": "[1]; day 0.250", "result": 61.22, "unit": "%"},
      {"measurement": "Percentage (normalized to maximal concentration at the first time point, 30 min)", "setting": "[1]; day 1.000", "result": 44.22, "unit": "%"},
      {"measurement": "Percentage (normalized to maximal concentration at the first time point, 30 min)", "setting": "[1]; day 2.000", "result": 36.36, "unit": "%"},
      {"measurement": "Percentage (normalized to maximal concentration at the first time point, 30 min)", "setting": "[1]; day 3.000", "result": 27.38, "unit": "%"},
      {"measurement": "Percentage (normalized to maximal concentration at the first time point, 30 min)", "setting": "[1]; day 8.000", "result": 11.53, "unit": "%"},
      {"measurement": "Percentage (normalized to maximal concentration at the first time point, 30 min)", "setting": "[1]; day 10.000", "result": 12.44, "unit": "%"},
      {"measurement": "Percentage (normalized to maximal concentration at the first time point, 30 min)", "setting": "[1]; day 14.000", "result": 14.35, "unit": "%"},
      {"measurement": "F.I. (AlamarBlue fluorescence at 595 nm, cell viability)", "setting": "Mouse NFS-60 cells; 0.09876 ng/mL", "result": 1328},
      {"measurement": "F.I. (AlamarBlue fluorescence at 595 nm, cell viability)", "setting": "Mouse NFS-60 cells; 0.29627 ng/mL", "result": 1436},
      {"measurement": "F.I. (AlamarBlue fluorescence at 595 nm, cell viability)", "setting": "Mouse NFS-60 cells; 0.88881 ng/mL", "result": 1734.765},
      {"measurement": "F.I. (AlamarBlue fluorescence at 595 nm, cell viability)", "setting": "Mouse NFS-60 cells; 2.66642 ng/mL", "result": 2189},
      {"measurement": "F.I. (AlamarBlue fluorescence at 595 nm, cell viability)", "setting": "Mouse NFS-60 cells; 7.99927 ng/mL", "result": 2680},
      {"measurement": "F.I. (AlamarBlue fluorescence at 595 nm, cell viability)", "setting": "Mouse NFS-60 cells; 23.9978 ng/mL", "result": 2899},
      {"measurement": "F.I. (AlamarBlue fluorescence at 595 nm, cell viability)", "setting": "Mouse NFS-60 cells; 71.9934 ng/mL", "result": 2921},
      {"measurement": "F.I. (AlamarBlue fluorescence at 595 nm, cell viability)", "setting": "Mouse NFS-60 cells; 215.9802 ng/mL", "result": 3416},
      {"measurement": "Percentage of Neutrophil", "setting": "mice neutrophils", "result": 25.05}
    ]},
    {"substance": "Ab-bGCSF L1: bovine G-CSF replacing the knob domain of BLV1H12 CDR3H with GGGGS linkers on both ends; DNA SEQ ID NO: 5", "values": [
      {"measurement": "Number of CD45RA− CD41−", "setting": "Human mPB CD34+ cells; 0.30483 ng/mL", "result": 4070},
      {"measurement": "Number of CD45RA− CD41−", "setting": "Human mPB CD34+ cells; 0.91449 ng/mL", "result": 3601},
      {"measurement": "Number of CD45RA− CD41−", "setting": "Human mPB CD34+ cells; 2.74348 ng/mL", "result": 4303},
      {"measurement": "Number of CD45RA− CD41−", "setting": "Human mPB CD34+ cells; 8.23045 ng/mL", "result": 6404},
      {"measurement": "Number of CD45RA− CD41−", "setting": "Human mPB CD34+ cells; 24.69136 ng/mL", "result": 9122},
      {"measurement": "Number of CD45RA− CD41−", "setting": "Human mPB CD34+ cells; 74.07407 ng/mL", "result": 11200},
      {"measurement": "Number of CD45RA− CD41−", "setting": "Human mPB CD34+ cells; 222.22222 ng/mL", "result": 11000},
      {"measurement": "Number of CD45RA− CD41−", "setting": "Human mPB CD34+ cells; 666.66667 ng/mL", "result": 11400},
      {"measurement": "Number of CD45RA− CD41−", "setting": "Human mPB CD34+ cells; 2000 ng/mL", "result": 11400},
      {"measurement": "Number of CD45RA− CD41−", "setting": "Human mPB CD34+ cells; 6000 ng/mL", "result": 13200},
      {"measurement": "Percentage (normalized to maximal concentration at the first time point, 30 min)", "setting": "[1]; day 0.021", "result": 100.00, "unit": "%"},
      {"measurement": "Percentage (normalized to maximal concentration at the first time point, 30 min)", "setting": "[1]; day 0.042", "result": 102.12, "unit": "%"},
      {"measurement": "Percentage (normalized to maximal concentration at the first time point, 30 min)", "setting": "[1]; day 0.083", "result": 104.03, "unit": "%"},
      {"measurement": "Percentage (normalized to maximal concentration at the first time point, 30 min)", "setting": "[1]; day 0.125", "result": 101.71, "unit": "%"},
      {"measurement": "Percentage (normalized to maximal concentration at the first time point, 30 min)", "setting": "[1]; day 0.250", "result": 93.90, "unit": "%"},
      {"measurement": "Percentage (normalized to maximal concentration at the first time point, 30 min)", "setting": "[1]; day 1.000", "result": 59.26, "unit": "%"},
      {"measurement": "Percentage (normalized to maximal concentration at the first time point, 30 min)", "setting": "[1]; day 2.000", "result": 56.66, "unit": "%"},
      {"measurement": "Percentage (normalized to maximal concentration at the first time point, 30 min)", "setting": "[1]; day 3.000", "result": 39.09, "unit": "%"},
      {"measurement": "Percentage (normalized to maximal concentration at the first time point, 30 min)", "setting": "[1]; day 8.000", "result": 22.21, "unit": "%"},
      {"measurement": "Percentage (normalized to maximal concentration at the first time point, 30 min)", "setting": "[1]; day 10.000", "result": 21.15, "unit": "%"},
      {"measurement": "Percentage (normalized to maximal concentration at the first time point, 30 min)", "setting": "[1]; day 14.000", "result": 21.41, "unit": "%"},
      {"measurement": "F.I. (AlamarBlue fluorescence at 595 nm, cell viability)", "setting": "Mouse NFS-60 cells; 0.09808 ng/mL", "result": 1412.387},
      {"measurement": "F.I. (AlamarBlue fluorescence at 595 nm, cell viability)", "setting": "Mouse NFS-60 cells; 0.29424 ng/mL", "result": 1654.776},
      {"measurement": "F.I. (AlamarBlue fluorescence at 595 nm, cell viability)", "setting": "Mouse NFS-60 cells; 0.88272 ng/mL", "result": 2082.718},
      {"measurement": "F.I. (AlamarBlue fluorescence at 595 nm, cell viability)", "setting": "Mouse NFS-60 cells; 2.64816 ng/mL", "result": 2550.674},
      {"measurement": "F.I. (AlamarBlue fluorescence at 595 nm, cell viability)", "setting": "Mouse NFS-60 cells; 7.94449 ng/mL", "result": 2997.807},
      {"measurement": "F.I. (AlamarBlue fluorescence at 595 nm, cell viability)", "setting": "Mouse NFS-60 cells; 23.83346 ng/mL", "result": 3277.812},
      {"measurement": "F.I. (AlamarBlue fluorescence at 595 nm, cell viability)", "setting": "Mouse NFS-60 cells; 71.50039 ng/mL", "result": 3308.383},
      {"measurement": "F.I. (AlamarBlue fluorescence at 595 nm, cell viability)", "setting": "Mouse NFS-60 cells; 214.50117 ng/mL", "result": 3868.075},
      {"measurement": "Percentage of Neutrophil", "setting": "mice neutrophils", "result": 25.32}
    ]}
  ]
}
